Measurements as given in US20090227669A1, “Compositions and Methods for Perioperative Bladder Instillation” (THE UNIVERSITY OF TOLEDO, priority 2004, published 2009).

Tests used:
AY-27 cells [1] = assay: Intravesical EGCG instillation after AY-27 tumor cell implantation in cauterized rat bladder; format: in vivo, Fisher 344 rats
Method: Single Polyphenol (EGCG): Fisher 344 rats were maintained under guidelines of the Medical College of Ohio Institutional Animal Care and Use Committee. A combination ketamine (80 mg/kg)/xylazine (12 mg/kg) intraperitoneal injection was used to anesthetize the rats prior to surgery. The abdomen was shaved and prepped with an iodine solution under sterile conditions. Oxytetracycline 20 mg was injected subcutaneously for antibacterial prophylaxis. Under 4× microscopic magnification, a 1.5 cm midline incision exposed the bladder. A sterile, 22 gauge Angiocath cannula was then advanced transurethrally. A blunt-tipped 24 gauge copper wire was then advanced through the catheter and a […] current was used to cauterize the bladder wall creating a small, white puckered area. The skin and muscular layers of the abdominal wall were closed with a running 4-0 silk suture.
AY-27 cells suspended in 0.25 cc of serum free RPMI-1640 medium were instilled transurethrally into 40 rats. The catheters were then capped and the tumor cells were allowed to dwell inside the bladder for 30 minutes. After tumor cell instillation, twelve rats (Group I) had two, separately hourly instillations of culture medium. Twenty-eight rats (Group II) were treated with a freshly prepared solution of 0.25 cc, 200 microM EGCG solution in RPLMI-1640 medium for 2 separate dwell times of one hour. […]

[2] = test system: AY-27 rat transitional cancer cell line; assay: AY-27 cell survival/growth under EGCG treatment; format: cell-based
AY-27 cells [3] = assay: DNA ladder assay in AY-27 cells; format: cell-based, rat
[4] = orally administered; along with at least five metabolites; cited from earlier work

With `O=C(O[C@@H]1Cc2c(O)cc(O)cc2O[C@@H]1c1cc(O)c(O)c(O)c1)c1cc(O)c(O)c(O)c1` [EGCG, epigallocatechin-gallate] the tumor growth rate (AY-27 cells [1]; 200 microM EGCG, 0.25 cc, 2 separate dwell times of one hour, euthanized three weeks later, n=28, controls 100%) was 36%, the “incidence of bladder tumor implantation” value (AY-27 cells [1]; intravesical EGCG at 200 microM for 2 hours) was “significantly reduce” and the “cellular growth of AY-27 cell line” value [2] was “inhibits cellular growth”. The cellular survival ([2]; after two hours of treatment at all concentrations of EGCG) was “No cellular survival”, the “banding pattern on DNA ladder assay (apoptosis)” value (AY-27 cells [3]) was “weak banding pattern” and the “fraction of total administered EGCG found in urine” value [4] was 0.03-0.59%.
